Experimental data published in patent US12435087B2, “Modulators of DCN-1 and methods of use thereof” (Cellarity, Inc., priority 2023, dated 2025).
Read-outs that look alike come from different tables or passages of the source.

Tests used:
DCN1 protein = DCN1 protein (Homo sapiens (Human), UniProt Q96GG9); assay: Intact protein MS analysis with the RapidFire-TOF system (covalent adduct formation); type: binding; conditions: 400 nM DCN1, incubated at room temperature for 3 hours
Protocol: (§1) DCN1 protein, His-TEV-DCN1, were expressed in E. Coli. The His-tagged protein was first purified with an Ni-NTA column. The His-tag was cleaved using His-tag TEV protease and the His-tags were removed using a second Ni-NTA column. Protein purity was verified with SDS-PAGE and intact MS. DCN1 was dissolved in a buffer containing 25 mM Tris-HCl, 200 mM NaCl, and 1 mM DTT at 400 nM. 11 concentrations of compounds were added to the DCN1 solution and incubated at room temperature for 3 hours, unless otherwise specified. The reaction plates were quenched by adding 0.2% formic acid. Quenched assay plates were analyzed with an Agilent RapidFire 360 system connected to an Agilent 6545 Q-TOF mass spectrometer equipped with an AJS source. 10 μL of sample volume was loaded onto a custom packed cartridge (4 μL, PLRP-S 30 μm/1000 Å pore; Optimize Technologies) with loading buffer (ddH2O with 0.09% (vol/vol) formic acid and 0.01% (vol/vol) trifluoroacetic acid; 1.25 ml/min) for 6 seconds before being eluted directly into the mass spectrometer in elution buffer (80% acetonitrile with 0.09% (vol/vol) formic acid and 0.01% (vol/vol) trifluoroacetic acid; 0.5 ml/min) for 7 seconds. The cartridge was re-equilibrated with loading buffer for 1 second before collection of the next sample. The Q-TOF was operated in TOF-only positive ionization mode set to the following parameters: Gas Temp=350 C, Drying Gas=7 l/min, Nebulizer=50 psi, Sheath Gas Temp=400 C, Sheath Gas Flow=12 l/min, VCap=4000 V, Nozzle Voltage=1000 V, Fragmentor=125 V, Skimmer=65 V and Oct 1 RF Vpp=750V. Raw MS data files were deconvoluted and analyzed using the Agilent MassHunter Bioconfirm software package to identify both parent protein and expected compound adduct mass signatures.
An MS assay was performed to evaluate the ability of the compounds to covalently modify DCN-1.
as §1, with “Vcap=4000” for “VCap=4000”

[1] = molecular target: DCN1 (DCUND1) protein PONY domain (Homo sapiens (Human), UniProt Q96GG9); assay: TR-FRET assay (binding to DCN-1, displacement of FAM-labeled probe)
Procedure, shortened: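 Compounds read at 1, 5 and 24 h, 0.1% final DMSO, by TR-FRET between terbium-streptavidin on biotinylated DCN1 PONY domain (E. coli) and a FAM-tagged non-covalent inhibitor probe. Two setups used, 5 nM protein with 20 nM labelled probe, or 0.31 nM protein with 100 nM labelled plus 800 nM unlabelled probe; buffer had TritonX and 200 mM NaCl. % activity relative to high (with probe) and low (without probe) controls.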

[2] = 24 hr after treatment with compound, read-out: TR FRET IC50 24 hr
[3] = read-out: TR FRET IC50 1 hr, 1 hr after treatment with compound
[4] = TR FRET IC50 1 hr (nM), 1 hr after treatment with compound

Sequence of DCN1 (DCUND1) protein PONY domain (Q96GG9 60-248): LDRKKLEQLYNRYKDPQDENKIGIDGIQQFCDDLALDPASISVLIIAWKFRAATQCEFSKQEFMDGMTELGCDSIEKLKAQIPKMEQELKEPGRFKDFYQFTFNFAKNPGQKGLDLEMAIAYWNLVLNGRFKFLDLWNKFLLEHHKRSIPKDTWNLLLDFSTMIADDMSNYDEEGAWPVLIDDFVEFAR
Sequence of DCN1 protein (Q96GG9 whole entry): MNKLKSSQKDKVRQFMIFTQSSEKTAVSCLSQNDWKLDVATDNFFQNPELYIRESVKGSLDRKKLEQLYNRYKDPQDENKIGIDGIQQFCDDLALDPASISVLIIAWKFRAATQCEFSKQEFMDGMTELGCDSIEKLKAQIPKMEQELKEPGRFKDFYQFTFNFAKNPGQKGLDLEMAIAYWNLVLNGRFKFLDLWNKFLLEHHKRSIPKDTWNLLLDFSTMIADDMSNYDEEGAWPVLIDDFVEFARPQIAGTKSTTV

CCN1C(=O)[C@H](NC(=O)c2cccc(C(F)(F)F)c2)[C@@H](c2ccccc2NC(=O)C(F)Cl)c2cnn(-c3ccccc3)c21 (mixture of isomers) [Compound I-174]
Emax (DCN1 protein): 0 to 30%

CCN1C(=O)[C@H](NC(=O)c2cccc(C(F)(F)F)c2)[C@@H](c2cccc(NC(=O)[C@H](C)Br)c2)c2c(C)nn(-c3ccccc3)c21 (mixture of isomers) [Compound I-180]
Emax (DCN1 protein): 80 to 100%

CCN1C(=O)[C@H](NC(=O)c2cccc(C(F)(F)F)c2)[C@@H](c2ccccc2NC(=O)[C@H](C)Cl)c2c(C)nn(-c3ccccc3)c21 (mixture of isomers) [Compound I-181]
% Adduct Formation (MS Emax) (DCN1 protein): ++ (MS Emax % adduct formation greater than 30.0 and less than or equal to 80.0)

CCN1C(=O)[C@H](NC(=O)c2cccc(C(F)(F)F)c2)[C@@H](c2ccccc2NC(=O)[C@H](C)Cl)c2c(C)nn(-c3ccccc3)c21 (mixture of isomers) [Compound I-182]
% Adduct Formation (MS Emax) (DCN1 protein): + (MS Emax % adduct formation greater than or equal to 0.0 and less than or equal to 30.0)

CCN1C(=O)[C@H](NC(=O)c2cccc(C(F)(F)F)c2)[C@@H](c2ccccc2NC(=O)[C@@H](C)Cl)c2cnn(-c3ccccc3)c21 (mixture of isomers) [Compound I-185]
Emax (DCN1 protein): 0 to 30%

C=C(CN1CCN(C2COC2)CC1)C(=O)NCc1cccc([C@@H]2c3c(C)nn(-c4ccccc4)c3N(CC)C(=O)[C@H]2NC(=O)c2cccc(C(F)(F)F)c2)c1 [Compound I-353]
IC50 [1, 2]: ≤ 200 nM
IC50 [1, 3]: ≤ 200 nM

C=C(CN1CCN(C2COC2)CC1)C(=O)NCc1cccc([C@@H]2c3cnn(-c4ccccc4)c3N(CC)C(=O)[C@H]2NC(=O)c2nccc(C(F)(F)F)n2)n1 [Compound I-354]
IC50 [1, 2]: 1000 to 3000 nM
IC50 [1, 4]: 1000 to 3000 nM

C=C(CN1CCN(C2COC2)CC1)C(=O)NCc1cccc([C@@H]2c3cnn(-c4ccccc4)c3N(CC)C(=O)[C@H]2NC(=O)c2ccn(C(F)(F)F)n2)c1 [Compound I-356]
IC50 [1, 2]: ≤ 200 nM
IC50 [1, 3]: ≤ 200 nM

C=C(CN1CCOCC1)C(=O)NCc1cccc([C@@H]2c3cnn(-c4ccccc4)c3N(CC)C(=O)[C@H]2NC(=O)c2ccn(CCF)n2)c1 [Compound I-357]
IC50 [1, 2]: ≤ 200 nM
IC50 [1, 4]: 200 to 1000 nM

CCC(=O)NCc1cccc([C@@H]2c3cnn(-c4ccccc4)c3N(CC)C(=O)[C@H]2NC(=O)c2nccc(C(F)(F)F)n2)c1 [Compound I-358]
IC50 [1, 2]: 1000 to 3000 nM
IC50 [1, 4]: 1000 to 3000 nM

CCN1C(=O)[C@@H](NC(=O)c2nccc(C(F)(F)F)n2)[C@H](c2cccc(CNC(=O)C(COC)CN3CCC(F)(F)C3)c2)c2cnn(-c3ccccc3)c21 (stereo partly drawn) [Compound I-360]
IC50 [1, 2]: 1000 to 3000 nM
IC50 [1, 4]: 1000 to 3000 nM

C=C(CN1CC(C)(O)C1)C(=O)NCc1cccc([C@@H]2c3cnn(-c4ccccc4)c3N(CC)C(=O)[C@H]2NC(=O)c2cccc(C(F)(F)F)c2)c1 [Compound I-361]
IC50 [1, 2]: ≤ 200 nM
IC50 [1, 3]: ≤ 200 nM

CCN1C(=O)[C@H](NC(=O)c2cccc(C(F)(F)F)c2)[C@@H](c2cccc(CNC(=O)C3=CCN(C)C3)c2)c2c(C)nn(-c3ccccc3)c21 [Compound I-362, N-(3-((4S,5R)-7-ethyl-3-methyl-6-oxo-1-phenyl-5-(3-(trifluoromethyl)benzamido)-4,5,6,7-tetrahydro-1H-pyrazolo[3,4-b]pyridin-4-yl)benzyl)-1-methyl-2,5-dihydro-1H-pyrrole-3-carboxamide]
IC50 [1, 2]: 1000 to 3000 nM
IC50 [1, 4]: 1000 to 3000 nM

C/C=C(\CN1CCOCC1)C(=O)NCc1cccc([C@@H]2c3cnn(-c4ccccc4)c3N(CC)C(=O)[C@H]2NC(=O)c2nccc(C(F)(F)F)n2)c1 [Compound I-363]
IC50 [1, 2]: ≤ 200 nM
IC50 [1, 4]: 200 to 1000 nM

C=C(CN1CCOCC1)C(=O)NCc1cccc([C@@H]2c3cnn(-c4ccccc4)c3N(CC)C(=O)[C@H]2NC(=O)c2ccn(CC(F)F)n2)c1 [Compound I-364]
IC50 [1, 2]: ≤ 200 nM
IC50 [1, 4]: 200 to 1000 nM

C/C=C(\CN(C)C1COC1)C(=O)NCc1cccc([C@@H]2c3cnn(-c4ccccc4)c3N(CC)C(=O)[C@H]2NC(=O)c2csc(C(F)(F)F)n2)c1 [Compound I-365]
IC50 [1, 2]: ≤ 200 nM
IC50 [1, 4]: 200 to 1000 nM

C/C=C(\CN1CCC1)C(=O)Nc1cccc([C@@H]2c3cnn(-c4ccccc4)c3N(CC)C(=O)[C@H]2NC(=O)c2nccc(C(F)(F)F)n2)c1 [Compound I-367]
IC50 [1, 2]: ≤ 200 nM
IC50 [1, 4]: 1000 to 3000 nM

C/C=C(\CN1CCC(F)(F)C1)C(=O)Nc1cccc([C@@H]2c3cnn(-c4ccccc4)c3N(CC)C(=O)[C@H]2NC(=O)c2nccc(C(F)(F)F)n2)c1 [Compound I-368]
IC50 [1, 2]: ≤ 200 nM
IC50 [1, 4]: 1000 to 3000 nM

C/C=C(/CN1CCN(C2COC2)CC1)C(=O)N(C)c1cccc([C@@H]2c3cnn(-c4ccccc4)c3N(CC)C(=O)[C@H]2NC(=O)c2csc(C(F)(F)F)n2)c1 [Compound I-369]
IC50 [1, 2]: 1000 to 3000 nM
IC50 [1, 4]: 1000 to 3000 nM

C=C(CN1CCC12COC2)C(=O)N(C)Cc1cccc([C@@H]2c3cnn(-c4ccccc4)c3N(CC)C(=O)[C@H]2NC(=O)c2ccn(C(F)(F)F)n2)c1 [Compound I-371]
IC50 [1, 2]: 200 to 1000 nM
IC50 [1, 4]: 1000 to 3000 nM

CCN1C(=O)[C@@H](NC(=O)c2cccc(C(F)(F)F)c2)[C@H](c2cccc(CNC/C=C/C(=O)N(C)C)c2)c2cnn(-c3ccccc3)c21 [Compound I-372]
IC50 [1, 2]: 200 to 1000 nM
IC50 [1, 4]: 1000 to 3000 nM

C=C(CN1CCC12COC2)C(=O)N(C)Cc1cccc([C@@H]2c3cnn(-c4ccccc4)c3N(CC)C(=O)[C@H]2NC(=O)c2ccn(C3CC3)n2)c1 [Compound I-373]
IC50 [1, 2]: ≤ 200 nM
IC50 [1, 4]: 200 to 1000 nM

C=C(CN1CCC1)C(=O)NCc1cccc([C@H]2c3c(C)nn(-c4ccccc4)c3N(CC)C(=O)[C@@H]2NC(=O)c2cccc(C(F)(F)F)c2)c1 [Compound I-374]
IC50 [1, 2]: 200 to 1000 nM
IC50 [1, 4]: 200 to 1000 nM

C=C(CN1CC2(CCC2O)C1)C(=O)NCc1cccc([C@@H]2c3cnn(-c4ccccc4)c3N(CC)C(=O)[C@H]2NC(=O)c2cccc(C(F)(F)F)c2)c1 (stereo partly drawn) [Compound I-375]
IC50 [1, 2]: ≤ 200 nM
IC50 [1, 3]: ≤ 200 nM

C=C(C(=O)NCc1cccc([C@@H]2c3cnn(-c4ccccc4)c3N(CC)C(=O)[C@@H]2NC(=O)c2nccc(C(F)(F)F)n2)c1)C(C)N1CC2(COC2)C1 (stereo partly drawn) [Compound I-377, N-((4R,5R)-7-ethyl-4-(3-((2-methylene-3-(2-oxa-6-azaspiro[3.3]heptan-6-yl)butanamido)methyl)phenyl)-6-oxo-1-phenyl-4,5,6,7-tetrahydro-1H-pyrazolo[3,4-b]pyridin-5-yl)-4-(trifluoromethyl)pyrimidine-2-carboxamide]
IC50 [1, 2]: 200 to 1000 nM
IC50 [1, 4]: 1000 to 3000 nM

C/C=C(/CN1CCOCC1)C(=O)NCc1cccc([C@@H]2c3cnn(-c4ccccc4)c3N(CC)C(=O)[C@H]2NC(=O)c2ccn(C3CC3)n2)c1 [Compound I-381]
IC50 [1, 2]: 1000 to 3000 nM
IC50 [1, 4]: 1000 to 3000 nM

C/C=C(\CN(C)C1COC1)C(=O)Nc1cccc([C@@H]2c3cnn(-c4ccccc4)c3N(CC)C(=O)[C@H]2NC(=O)c2nccc(C(F)(F)F)n2)c1 [Compound I-384]
IC50 [1, 2]: ≤ 200 nM
IC50 [1, 4]: 200 to 1000 nM

C/C=C(/C(=O)Nc1cccc([C@@H]2c3cnn(-c4ccccc4)c3N(CC)C(=O)[C@H]2NC(=O)c2nccc(C(F)(F)F)n2)c1)C(C)N1CCC1 (stereo partly drawn) [Compound I-385]
IC50 [1, 2]: 1000 to 3000 nM
IC50 [1, 4]: 1000 to 3000 nM
